Measured values as given in patent US20250134877A1, “METHODS OF TREATING CANCER DEPENDENT ON MYC GENE EXPRESSSION” (KARTOS THERAPEUTICS, priority 2021, published 2025).

How the values were obtained:
[1] = test system: other members of the CD28 family; details: selectivity; cited from earlier work
p21 gene expression [2] = experiment: Gene expression analysis of PBMC samples from relapsed/refractory AML patients: p21; type: in vivo, human; details: R/R AML patients, 120, 180, 240 or 360 mg daily for seven days, C1D1 pre-dose vs C1D5, FIG. 2
Description: (§1) FIG. 2 illustrates that the compound of Formula (I) induces p21 and represses Myc in relapsed/refractory acute myeloid leukemia (AML) patients. PBMC samples from the patients were used for the gene expression analyses. C1D1 refers to Cycle 1 Day 1. C1D5 refers to Cycle 1 Day 5.
(§2) Effects of the compound of Formula (I) were investigated on the gene expression of p21 and Myc in the AML patients.
(§3) In dose-escalation phase study, the dosing of the compound of Formula (I) is 120 mg (three patients); 180 mg (2 patients), 240 mg (8 patients), and 360 mg (4 patients) daily for seven days, with different ‘off-treatment’ duration depending on cohort assignments. The peripheral blood mononuclear cell (PBMC) samples were taken from patients pre-dosing on day 1 of cycle 1, and day 5 of cycle 1.

Myc gene expression [3] = experiment: Gene expression analysis of PBMC samples from relapsed/refractory myelofibrosis patients: Myc; type: in vivo, human; details: R/R myelofibrosis patients, 120 mg or 240 mg for 7 days or 240 mg for 5 days, C1D1 pre-dose vs C1D5, C1D6/8, FIG. 1
Text: (§4) FIG. 1 illustrates that the compound of Formula (I) induces p21 and represses Myc in relapsed/refractory myelofibrosis (R/R MF) patients. PBMC samples from the patients were used for the gene expression analyses. fdr.q refers to false discovery rate adjusted significance value for change in normalized gene expression. C1D1 refers to Cycle 1, Day 1. C1D5 refers to Cycle 1, Day 5. C1D6/8 refers to Cycle 1, Day 6 or 8.
(§5) Effects of the compound of Formula (I) were investigated on the gene expression of p21 and Myc in the patients of relapsed/refractory myelofibrosis. In the study, The compound of Formula (I) is administered at 120 mg for 7 days for Cohort 1, 240 mg for 7 days for Cohort 2, 240 mg for 7 days for Cohort 3, and 240 mg for 5 days for Cohort 4.
(§6) The peripheral blood mononuclear cell (PBMC) samples were taken from the patients pre-dosing on day 1 of cycle 1, day 5 of cycle 1, day 6 of cycle 1, and day 8 of cycle 1.

p21 gene expression [4] = experiment: Gene expression analysis of PBMC samples from relapsed/refractory myelofibrosis patients: p21; type: in vivo, human; details: R/R myelofibrosis patients, 120 mg or 240 mg for 7 days or 240 mg for 5 days, C1D1 pre-dose vs C1D5, C1D6/8, FIG. 1
Text: as §4, §5, §6

Myc gene expression [5] = experiment: Gene expression analysis of PBMC samples from relapsed/refractory AML patients: Myc; type: in vivo, human; details: R/R AML patients, 120, 180, 240 or 360 mg daily for seven days, C1D1 pre-dose vs C1D5, FIG. 2
Description: as §1, §2, §3

| Compound | binding to other members of the CD28 family [1] | effect on p21 gene expression (p21 gene expression [2]) | effect on Myc gene expression (Myc gene expression [3]) | effect on p21 gene expression (p21 gene expression [4]) | effect on Myc gene expression (Myc gene expression [5]) |
| --- | --- | --- | --- | --- | --- |
| 5C4: fully human IgG4 antibody blocking the PD-1 receptor; 5C4 in WO 2006/121168 and U.S. Pat. No. 8,008,449 [Formula 5C4] | do not bind |  |  |  |  |
| CC(C)[C@@H](CS(=O)(=O)C(C)C)N1C(=O)[C@@](C)(CC(=O)O)CC(c2cccc(Cl)c2)[C@H]1c1ccc(Cl)cc1 (stereo partly drawn) [Formula (I), 2-((3R,5R,6S)-5-(3-chlorophenyl)-6-(4-chlorophenyl)-1-((S)-1-(isopropylsulfony1)-3-methylbutan-2-y1)-3-methyl-2-oxopiperidin-3-yl) acetic acid] |  | induces | represses | induces | represses |
